“Also recorded” adds a separate entry of the source.
Experiments:
[1] = system: estrogen induced pituitary lactotroph tumor; experiment: Estrogen induced pituitary lactotroph tumor in Fischer-344 rats; format: in vivo, rat; conditions: F344 rats
Protocol: 17β-estradiol-filled capsules or empty capsule were inoculated subcutaneously in F344 rats (4-5 weeks of age) for one month. A. Western blotting analysis was performed using collected pituitary or pituitary tumor. Next 17β-estradiol-filled capsules were inoculated subcutaneously in F344 rats (4-5 weeks of age) for 2 months. After capsule excision, oral vehicle or lapatinib was administered for 2 weeks. […] C. Tumor weights were measured after euthanasia. D. Serum PRL and GH levels were measured by RIA.
Next, 4-5 wk ovariectomized female Fishcer-344 rats (Harlan Sprague Dawley, Inc.) were s.c. implanted with an 17β-estradiol-filled […] brand capsule (Dow Corning Corp., Medical Grade Tubing Special; length, 3 cm; od, 0.125 in.; id, 0.062 in.) under isoflurane inhalational anesthesia. Two months thereafter, when serum PRL levels reached 3000 ng/ml, 17β-estradiol-filled capsules were extracted, and animals were treated with lapatinib (100 mg/kg) or vehicle (0.5% methylcellose, 0.5% tween80/PBS; 100 μl) via oral gavage twice a day for 2 weeks. 500 μl blood was collected for hormone assessment by retro-orbital bleeding under isoflurane inhalational anesthesia. On the last treatment day (day 14), rats were euthanized within 3 h of drug administration. Cardiac blood was collected and pituitary tumors excised and weighed. Fragments of each tumor were fixed in formalin and embedded in paraffin, preserved in RNA later solution, or frozen in liquid nitrogen.
Next, the inventors tested Fischer-344 rats treated with 17β-estradiol as a model for pituitary prolactinomas (24). […] The inventors then extracted the capsule, and initiated oral lapatinib or vehicle treatment for a subsequent 2 weeks.

[2] = system: GH3 cells stably expressing HER2CA; experiment: Soft agarose colony-forming assay, HER2CA transfectants; format: cell-based, rat; conditions: for suppression of colony formation in soft agar: Her2CA-GH3 cells
Protocol: B. GH3 cells stably expressing HER2CA or pcDNA3 were plated (4,000 per well) in 96 well plates for the indicated times, and WST assay performed. C. […] Values are mean±SEM. *p<0.05, ** p<0.01, ^‡p<0.05 vs pcDNA3 control, ^†p<0.05 vs HER2CA control, ^‡‡p<0.05 vs pcDNA3 control, ^††p<0.05 vs HER2CA control.
Base layers consisting of growth medium containing 0.6% low-melting point agarose (Invitrogen) were poured onto 6-well plates and allowed to solidify. Cells (8×10^3 per well) were plated in triplicate in top layers consisting of growth medium containing 0.3% agarose. Seven to ten days later, cells were stained with 0.2% iodonitrotetrazolium chloride (Invitrogen), and colonies composed of 50 cells were counted manually in 5 randomly selected fields.

HER2CA GH3 tumors = experiment: HER2CA GH3 subcutaneous tumors in Wistar-Furth rats; format: in vivo, rat; conditions: for suppression of postmortem tumor weight / suppression of serum PRL levels / HER2CA tumor volume: Wistar-Furth rats; for suppression of postmortem tumor weight / suppression of serum PRL levels: 100 mg/kg daily oral gavage; for HER2CA tumor volume: 100 mg/kg daily oral gavage from day 3 after inoculation, vehicle 924±48
Protocol: B-C. […] (B). Tumor weights were measured after euthanasia (C). Serum PRL levels were measured by RIA (D), and ex vivo Realtime PCR performed (E). Tumor volumes were calculated using the formula, π/6×large diameter×small diameter^2.
In accordance with Institutional Animal Care and Use Committee guidelines, 4-5 wk old female Wistar-Furth rats (Harlan Sprague Dawley, Inc.) were inoculated with pcDNA3 (n=6) or HER2CA (n=6) cells (3×10^6 cells/rat). Rats were fed with a commercial pelleted diet ad libitum and tap water. Tumor volumes were measured with a caliper and calculated using the formula, π/6×large diameter×small diameter^2 as previously described (8). […] 500 μl blood was collected twice for hormone assessment (before inoculation, 2 days after inoculation) by retro-orbital bleeding. This procedure was performed under isoflurane inhalational anesthesia via a nose cone connected to a rodent anesthesia machine (Kent Scientific Corporation). On the last treatment day (day 7), rats were euthanized within 3 h of drug administration. Cardiac blood was collected with 18-gauge syringes and tumors excised and weighed. Fragments of each tumor were fixed in formalin and embedded in paraffin for immunohistochemical staining, preserved in RNA later solution (Ambion) for subsequent RNA extraction and frozen in liquid nitrogen for subsequent protein extraction.
To evaluate in vivo effects of HER2 overexpression on lactosomatotroph tumor growth, HER2CA or pcDNA3 transfectants were inoculated subcutaneously into female Wistar-Furth rats. […] Next, the effects of lapatinib administration on tumor growth and hyperprolactinemia were examined. […] After euthanasia, tumors were excised and immediately weighed and processed.

human prolactinoma cells = experiment: RIA of PRL in culture media of primary human prolactinoma cell cultures; format: cell-based; conditions: for suppression of PRL secretion into the culture medium: 24 hr
Protocol: A, B, D, and E. After trans-sphenoidal surgery of human prolactinomas, tumor cells were cultured. […] PRL levels in culture media were measured using RIA (B). H&E and PRL staining of tumor and confocal immunocytochemistry of EGFR and HER2 (Tumor A) (C), or for Tumor B (F). Magnification of these figures was 100×. […] PRL levels in culture media were measured using RIA (E). Prolactinoma cells (Tumor B) were treated with U0126 (0.1-5 μM) for 24 hr, and Realtime PCR of PRL performed (G).
Human prolactinoma tissues were obtained at the time of surgery (Pituitary Center, Cedars-Sinai Medical Center) and transferred in 0.3% BSA containing DMEM according to an IRB-approved protocol. After washing with medium, tumor tissues were chopped with a sterile scalpel into approximately 1-2 mm pieces. Tissues were rinsed and digested with DMEM containing 0.3% BSA, 0.35% collagenase, and 0.15% hyaluronidase at 37° C. for 30 min The mixture was centrifuged at 1,500 rpm for 5 min at 4° C., and the cell pellet resuspended in an appropriate volume of culture medium containing 10% FBS and antibiotics in 48 well plates. After 24 hr incubation with serum depleted starvation medium (DMEM with 0.3% BSA), treatment agents were added with fresh serum-depleted medium (0.3% BSA), and medium collected for RIA. RNA was extracted after 24 hr treatment. Medium was also collected at baseline. To normalize for cell number effect, the PRL value of treated medium was divided by that of pre-treatment starvation medium to obtain a treated value for each well (n=4).

[3] = system: EGF-induced HER2 and MAPK autophosphorylation; experiment: Western blotting of EGF-induced ErbB signaling and intracellular PRL in HER2CA GH3 cells; format: cell-based, rat
Protocol: GH3 rat lacto-somatotroph tumor cells secreting PRL and GH were purchased from the American Type Culture Collection. HER2CA cells were generated by transfection with pcDNA3-HER2CA (V654E) purchased from Addgene (Addgene plasmid 16259). Stable colonies were selected in the presence of 500 μg/ml G418 (Invitrogen). A vector control cell line pcDNA3 was simultaneously established by transfecting pcDNA3 that lacked inserted cDNA. After selection and propagation of stable transfectants, cells were cultured in DMEM/F12 medium containing 15% horse serum, 2.5% FBS, penicillin/streptomycin, and 500 μg/m G418. After synchronization by serum starvation (medium containing 0.2% bovine serum albumin for ˜24 h), cells with treatment agents was grown in fresh serum-depleted medium (0.2% bovine serum albumin), and samples collected at the indicated times.
Proteins were separated on 4 to 12% NuPAGE Bis-Tris gels and electro-transferred for 3 h to polyvinylidene difluoride membranes (Invitrogen). Membranes were blocked for 1 h in 5% nonfat dry milk or 5% bovine serum albumin in TBS-T buffer, and incubated overnight with primary antibody. The following primary antibodies were used: anti-pErk1/2, anti-Erk1/2, anti-Akt, anti-pEGFR (Tyr1068), anti-EGFR, anti-pHER3/ErbB3 (Tyr1289), and anti-Cleaved Caspase-3 from Cell Signaling Technology, anti-pNeu (Tyr1248), anti-Neu (C-18), anti-HER3/ErbB3, anti-PRL, and anti-GAPDH from Santa Cruz Biotechnology, and anti-pAkt (Ser473) from Abcam. After washing with TBS-T, membranes were incubated with peroxidase-conjugated secondary antibody for 1 h (5% nonfat dry milk or 5% bovine serum albumin in TBS-T buffer).

[4] = 100 mg/kg oral gavage twice a day for 2 weeks
[5] = Tumor A, lapatinib 0.1-10 μM or gefitinib 10 μM

Structure (SMILES)	serum GH levels [1, 4]	suppression of serum PRL levels [1, 4] [%]	suppression of tumor weight ([1]; 100 mg/kg oral gavage twice a day for 2 weeks after capsule extraction) [%]	pituitary tumor growth induced by estrogen ([1]; oral treatment for 2 weeks)	colony formation in soft agar ([2]; HER2CA GH3 cells, 0.1-10 μM every third day)	suppression of colony formation in soft agar [2] [%]	suppression of postmortem tumor weight (HER2CA GH3 tumors) [%]	suppression of serum PRL levels (HER2CA GH3 tumors) [%]	HER2CA tumor volume (HER2CA GH3 tumors) [mm^3]	change in Her2CA-GH3 tumor size (HER2CA GH3 tumors; rats, after one week of treatment) [%]	suppression of PRL secretion into the culture medium (human prolactinoma cells; [5]) [%]	suppression of PRL secretion into the culture medium (human prolactinoma cells; Tumor B, 0.01-10 μM) [%]	suppression of human PRL secretion (human prolactinoma cells; human primary prolactinoma tumor cell cultures, tumor not named) [%]	intracellular PRL levels ([3]; Western blotting)	attenuation of Her1/EGFR and Her2/Neu signaling (HER2 and MAPK autophosphorylation) ([3]; pretreated 0.1-10 μM 45 min, EGF 5 nM 10 min)
CS(=O)(=O)CCNCc1ccc(-c2ccc3ncnc(Nc4ccc(OCc5cccc(F)c5)c(Cl)c4)c3c2)o1 [lapatinib, Lapatinib]	not altered	~35	~35	attenuated	fewer HER2CA colonies	~80	~40	~50	549±45	−40	~70	~60	~70	decreased	attenuated EGF-induced HER2 and MAPK autophosphorylation more markedly than gefitinib; also recorded: blocked
COc1cc2ncnc(Nc3ccc(F)c(Cl)c3)c2cc1OCCCN1CCOCC1 [gefitinib]	–	–	–	–	–	~50	~30	~40	695±63	–	~50	~40	–	–	–
